Patent publication US20040101534A1 (priority 2002, published 2004)
Entries after “also recorded” stand apart in the source; their conditions may differ.

Assays:
[1] = system: JA2.1 T cells infected with vaccinia virus expressing pp65; set-up: species or system HLA A2.1/K^b transgenic mice; details: mouse, in vivo, sc
human PBL = details: cited from earlier work
[2] = system: T2 cells loaded with pp65495-503; details: mouse, in vivo; cited from earlier work

Sequence | recognition of endogenously processed pp65 [1] | CTL precursor memory response (human PBL) | CTL response directed at the pp65495-503 CTL epitope [2]
VSTIVPYIGPALNIAAANLVPMVATV [Tet639V] | evident; also recorded: more prominent | – | –
NLVPMVATV [pp65495-503] | – | stimulates a CTL precursor (CTLp) memory response | robust CTL response
